# Data from patent US20020111314A1, “Novel stimulation of gene expression and protein synthesis of heat shock protein 72/73 (Hsp 70)” (The Trustees of Columbia University, priority 1995, published 2002).
# Tests used:
# Hsp70 = Hsp70 induction in HepG2 cells ([3H]-leucine labeling, denaturing immunoprecipitation); type: cell-based, human; details: HepG2; 4 hours; MG132 10 μM or 30 μM, lactacystin 10 μM; 30 min labeling
# Description: HepG2 cells were grown up to 95% confluence and then preincubated for 4 hours in a 37° C. incubator with serum-free minimum essential medium (MEM), followed by radiolabeling with 3H-leucine (150 μCi/ml) dissolved in serum-free, leucine-free medium. Preincubation and labeling medium each contained 1.5% bovine serum albumin (BSA) plus different concentrations of ALLN as indicated. After labeling, cells were collected and lysed, and Hsp70 was immunoprecipitated under denaturing conditions as described under Experimental Details. Cell lysates containing an equal amount of TCA-insoluble radioactivity were used for immunoprecipitation. (A): The immunoprecipitates were analyzed by sodium dodecyl sulfate-polyacryamide gel electrophoresis (SDS-PAGE) and fluorography. Numbers on the left-hand side denote molecular markers. (B): The Hsp70 radioactivity was quantitated by scintillation counting and plotted. All the values were presented as means±SD from three individual culture dishes.
# (§1) FIGS. 3A-3B: Effects of the other protease inhibitors on Hsp70 biosynthesis in HepG2 cells. HepG2 cells were preincubated in serum-free MEM containing either 1.5% BSA alone (Control), or BSA plus 40 μg/ml of ALLN, 40 μg/ml of ALLM, 50 μg/ml of leupeptin, 50 μg/ml of pepstatin A, 25 μg/ml of E-64d, 1 mM of phenylmethylsulfonyl fluoride (PMSF), 100 KIU/ml of apotinin, 1 mM of Benzamidine (Benz), 200 μM of calpain inhibitor peptide (CIP). Radiolabeling (in the presence of protease inhibitors), lysis and immunoprecipitation were performed as described in FIG. 1. The Hsp70 specific radioactivity (A) and the amount of total incorporated radioactivity (TCA-cpm) (B) were compared with each other. All the values were presented as the mean±SD from three individual culture dishes.
# FIGS. 9A-9B: Effects of proteasome inhibitors on Hsp70 induction. HepG2 cells were preincubated with the proteasome inhibitors MG132 at a final concentration of either 10 μM or 30 μM (A), or lactacystin at 10 μM (B) for 4 hours under conditions described in FIG. 3. These cells were then subjected to radiolabeling (30 min), cell lysis, and immunoprecipitation with anti-Hsp70 antibody. The experiments with MG132 (A) were repeated twice; the effects of lactacystin (B) were studied in triplicate culture dishes.
# ALLN, leupeptin, mouse anti-human Hsp72/73 monoclonal antibody, a secondary antibody conjugated with horseradish peroxidase (HRP) (goat anti-rabbit immunoglubin G [IgG]), and rabbit anti-rat IgG antibody were from Boehringer Mannheim Co. Anti-Human Hsp25 and anti-human Hsp60 monoclonal antibodies, ALLM, Calpain inhibitor peptide (CIP), dimethyl sulfoxide (DMSO) and dithiothreitol (DTT) were from Sigma. Human Hsp70 oligonucleotide probe was from Oncogene Science. This oligonucleotide was ^32P labeled at the 5′-end by T4 Kinase, which was from Biolabs. ^32P was from ICN Pharmaceutical Inc. L-[4,5-^3H] leucine was from Amersham Co. Anti-human Bip (immunoglobulin heavy chain binding protein, also called Grp78), anti-human Hsp27, anti-human Hsp60, and anti-human Hsp90 monoclonal antibodies were from Stress Genes. Anti-human Hsp86 and Hsp104 antibodies were from Affinity Bioreagent Inc. Nitrocellular transfer and immobilization membranes were from Schleicher & Schuell, Keene, N.H. RNA extraction kits were from Biotect, Tex. The polyclonal antibody against the human HSF1 protein was a generous gift from Dr. Carl Wu of the National Institute of Health (Rabindran, et al., 1993). Ethylene glycol bis(succunimidylsuccinate) (EGS) was from Pierce. Cbz-leucyl-leucyl-leucinal (MG132) was a gift of Dr. H. Ploegh at the Massachusetts Institute of Technology. All the other tissue culture supplies and chemicals were obtained from supplies as previously described (Dixon, et al., 1991). The HepG2 cell culture conditions were maintained as previously described (Dixon, et al., 1991).
# HepG2 cells = test: Total incorporation of radiolabel (TCA cpm) as indicator of cell toxicity in HepG2 cells; type: cell-based, human; details: MG132 10 or 30 μM, lactacystin 10 μM, data not shown
# Description: as §1
# Preincubation and labeling media each contained either 1.5% bovine serum albumin (BSA) alone, or BSA plus ALLN (40 μg/ml except as otherwise indicated), or BSA plus other protease inhibitors at concentrations indicated in the figure legends. At the indicated times, cells were removed from the 37° C. incubator and placed on ice, washed with cold phosphate-buffer saline (PBS) twice and lysed with lysis buffer containing 1% Triton X-100 (TX100), 1% deoxycholic acid (DOC) and 0.1% SDS in PBS containing proteinase inhibitors: 2 mM phenylmethylsulfonyl fluoride (PMSF); 2 μg/ml ALLN; 2 μg/ml leupeptin; and 2 μg/ml aprotinin. After a 30 min. incubation with lysis buffer at 4° C., the lysates were centrifuged at 14,000 g in a microcentrifuge for 5 min., and the supernatants were adjusted to 1% SDS concentration and boiled for 5 min. to denature the proteins. 1% TX100 was then added to dilute the lysates to a final concentration of 0.1% SDS. Cell lysates containing equal amounts of trichloroacetic acid (TCA)-insoluble radioactivity were used for immunoprecipitations by incubating with individual monoclonal antibody (1 μg/ml) for 2.5 hours at 4° C. Protein-A Sepharose 4B was added afterwards and the lysates incubated for another 1.5 hours at 4° C. to collect the immunocomplexes. […]
# [1] = test system: cysteine protease, serine protease, trypsin or chymotrypsin; details: even upon extended exposure; Ward 1995, Fenteany 1995; cited from earlier work
compound,measurement,setting,value
CC(=O)N[C@@H](CSC(=O)[C@]1([C@@H](O)C(C)C)NC(=O)[C@H](C)[C@@H]1O)C(=O)O [lactacystin],induction of Hsp70 levels by proteasome inhibitors (FIG. 9),Hsp70,induced Hsp70 levels dramatically
same,toxicity to the cells (TCA-precipitable radioactivities),HepG2 cells,without obvious toxicity
same,"effect on cysteine protease, serine protease, trypsin or chymotrypsin",[1],no detectable effect
